# Source: patent US8754058B2, “Inhibitors of FAM3B gene, inhibitor compositions, inhibiting methods and applications of inhibitors in preparing pharmaceuticals” (Suzhou Ribo Life Science Company, Ltd., priority 2009, dated 2014)
# “Also recorded” adds a separate entry of the source. d = 2'-deoxy (DNA); r = 2'-OH (RNA)
# Columns and labels:
# [1] = system: FAM3B protein in hepatic tissues; test: FAM3B protein expression in hepatic tissues of hyperlipemia model mice; type: in vivo; conditions: tail vein, daily for 7 days
# Source text: (§1) The hyperlipemia model of mice is induced by using high-fat feeds, the C57BL/6J mice are purchased from Vital River, male, three weeks old. The formula for the high fat feeds is as below: basic feeds 83.5%, […], 1% cholesterol, 10% pork fat, 0.2% propylthiouracil, 0.3% sodium deoxycholate, 5% sucrose, and it is produced by the experimental animal center of Academy of Military Medical Sciences. The hyperlipemia model of mice is obtained after induction for 3-4 weeks.
# (§2) After the small interfering nucleotide of FAM3B gene FAM3B-46 is labelled with cholesterol or coated with liposome, it is injected into the hyperlipemia model of mice via their tail veins. The injection is carried out for continuous 7 days with one injection each day and the samples are collected after 7 days. The standard dosages for injection are 2.5 mg, 5 mg and 10 mg for every kilogram of body weight. Other dosages such as 0.1 mg-50 mg small interfering nucleotide for every kilogram of body weight are also under test.
# FAM3B mRNA in intestine = test: FAM3B mRNA expression in intestine of hyperlipemia model mice; type: in vivo; conditions: tail vein, daily for 7 days, FIG. 7
# Source text: as §1, §2
# [2] = system: FAM3B protein in intestine; test: FAM3B protein expression in intestine of hyperlipemia model mice; type: in vivo; conditions: tail vein, daily for 7 days
# Source text: as §1, §2
# [3] = system: hyperlipemia model of mice; test: TG and cholesterol levels in hepatic tissues of hyperlipemia model mice; type: in vivo; conditions: tail vein, daily for 7 days, FIG. 8
# Source text: as §1
# as §2, with “test. The products from Zhongsheng Beikong Biological Technological Co., Ltd. are used as the kit for detecting triglyceride (TG) and cholesterol, and they are determined on a SABA/18 automated biochemical analyzer. The detections are carried out with reference to the instruction for the kits of Biosino Bio-Technology and Science Incorporation. The animals are subjected to fast dieting 16 hours before blood sample collection.” for “test.”
# [4] = system: hyperlipemia model of mice; test: TG and cholesterol levels in blood of hyperlipemia model mice; type: in vivo; conditions: tail vein, daily for 7 days, FIG. 9
# Source text: as §1, §2
# [5] = system: FAM3B protein in HepG2 cells; test: Western blot of FAM3B protein in transfected HepG2 cells; type: cell-based, human; conditions: 48 hours after transfection, Western blot grayscale, FIG. 5
# Procedure: The cells are digested with 0.25% trypsin 24 hours before the transfection, then the cells are counted and inoculated into the 24 well plate in a density of 1×10^5 cells/ml, and 1000 μl cells are added in each well. Lipofectamine™ 2000 liposome from Invitrogen Company is used for the transfection with the small interfering nucleotides obtained from example 1 (FAM3B-1 to FAM3B-32) respectively, and unrelated small interfering nucleotide (the sense strand: 5-[…]-3 (SEQ ID NO: 78); the antisense strand: 5-ACGUGACACGUUC GGAGAATT-3 (SEQ ID NO: 79)) is used as the negative control.
# (4) Inhibition on FAM3B Protein Expression by Using Small Interfering Nucleotides
# After the cells transfected according to step (2) in example 6 are cultured for 48 hours, the cells are disrupted by using the protein lysis buffer and the total proteins are extracted, and the protein sample is examined according to the standard procedure for Western blot. For the detection of FAM3B protein, the membrane is incubated with the rabbit derived anti-FAM3B antibody (R&D systems), the secondary antibody is the peroxidase labelled horse anti-rabbit antibody (Zhongshan Jinqiao); the antibody for detecting the internal reference β-actin: the primary antibody is mouse derived anti-β-actin antibody, and the secondary antibody is the peroxidase labelled goat anti-mouse antibody, and the results are subjected to grayscale comparison shown as FIG. 5.
# HepG2 cells = test: inhibition of fat-emulsion-induced lipid accumulation in HepG2 cells, oil red O staining; type: cell-based, human; conditions: 20% fat emulsion induction 48 hours, 50 nM, 48 hours after transfection, FIG. 6
# Procedure: (1) Induction of Lipid Accumulation in HepG2 Cells
# The cells are inoculated in the 24 well culture plate in a density of 2×10^4 cells/1 mL, 20% fat emulsion for medical use is added in each well in a dosage of 2 ml/L, and the cells are cultured for 48 hours. The culture is stopped and oil red O staining is carried out to observe the lipids in the cells. The operations are as followed: the cells are rinsed with PBS for three times and 5 minutes each; then the cells are fixed with 50% isopropanol for 1 min and stained with oil red O for 10 min; the cells are rinsed with distilled water for three times and 1 min each; the cells are observed and photographed under a microscope. Normally, the cells might be not stained or only slightly stained, large amount of lipids accumulated in the cells after induction with fat emulsion for medical use, and red lipid droplets can be detected under the microscope after the staining with oil red O.
# (2) Determination of the Inhibitory Effects on Lipid Accumulation in HepG2 Cells […]
# [6] = system: hepatic adipose infiltration model mice; test: hepatic adipose infiltration model in mice (MCD diet), oil red O and HE staining of hepatic sections; type: in vivo; conditions: tail i.v. once every three days, 15 days, 2.5, 5 and 10 mg/kg, FIG. 2
# Source text: (1) Induction on hepatic adipose infiltration model in mice. 10 male C57BL/6J mice (purchased from the department of experimental animals, Medical Division of Peking University) with age of 8-10 weeks are divided into two groups (normal diet and MCD diet). MCD (high-fat, methionine-choline deficient) diet is a common program for the investigations on non-alcoholic fatty liver in this field. The hepatic adipose infiltration model in mice is obtained after treatments for 10-16 weeks. (2) Treatments on Hepatic Adipose Infiltration Using Small Interfering Nucleotides
# 1.2 mg (0.09 μmol) small interfering nucleotides from FAM3B-43 to FAM3B-46 with modification in the example 3 is dissolved in 1.5 ml RNAase free sterilized physiological saline to prepare a solution comprising 60 μmol/L small interfering nucleotides, and it is mixed in certain proportion with the carrier material. The injection is obtained after the mixed small interfering nucleotide is added into 5 ml RNAase free sterile physiological saline (the concentration of the small interfering nucleotide is 0.25 mg/ml). […]
# [7] = standard dosages 2.5, 5, 10 mg/kg
# [8] = standard dosages and 10 mg/kilogram body weight
substance,measurement,setting,value
unrelated small interfering nucleotide: negative control siRNA; sense 5-UUCUCCGAACGUGUCACGUTT-3 (SEQ ID NO: 78); antisense 5-ACGUGACACGUUCGGAGAATT-3 (SEQ ID NO: 79) (chemistry not given here) [reference compound],reduction of FAM3B protein expression in hepatic tissues,[1],could not significantly reduce
same,reduction of FAM3B mRNA expression in intestine,FAM3B mRNA in intestine,could not significantly reduce
same,reduction of FAM3B protein expression in intestine,[2],could not significantly reduce
same,reduction of TG level in hepatic tissues,[3],could not significantly reduce
same,reduction of cholesterol level in hepatic tissues,[3],could not significantly reduce
same,reduction of TG level in blood,[4],could not significantly reduce
same,reduction of cholesterol level in blood,[4],could not significantly reduce
"FAM3B-20: siRNA, human FAM3B; sense 5′-GCUAAGAACAACAGAUAUUdTdT-3′; antisense 5′-AAUAUCUGUUGUUCUUAGCdTdT-3′ (sense GCUAAGAACAACAGAUAUUTT; antisense AAUAUCUGUUGUUCUUAGCTT; sugars from the 5' end r19 d2, backbone not given here)",inhibition of FAM3B protein expression in HepG2 cells,[5],significantly inhibit
same,inhibition of fatty deposition in HepG2 cells,HepG2 cells,significantly inhibit fatty deposition
"FAM3B-46: chemically modified mouse FAM3B siRNA (2′-O-methyl sense with cholesterol, 2′-fluoro antisense); 5-UCAGAAAUCGAGAGAGAAAdTdT; 5-UUUCUCUCUCGAUUUCUGAdTdT (sense UCAGAAAUCGAGAGAGAAATT; antisense UUUCUCUCUCGAUUUCUGATT; Sense 2'-OMe, antisense 2'-F at italic positions, sense cholesterol at terminus, further chemistry not given here)",degree of hepatic adipose infiltration (oil red O and HE staining),[6],effectively reduce the degree of hepatic adipose infiltration; also recorded: significantly reduced
same,reduction of FAM3B protein expression in hepatic tissues,[1]; [7],40%
same,reduction of FAM3B mRNA expression in intestine,FAM3B mRNA in intestine,significantly inhibit
same,reduction of FAM3B mRNA expression in intestine,FAM3B mRNA in intestine; [7],45%
same,reduction of FAM3B protein expression in intestine,[2]; [7],30%
same,reduction of TG level in hepatic tissues,[3]; 5 mg and 10 mg/kilogram body weight,20-40%
same,reduction of cholesterol level in hepatic tissues,[3]; 10 mg/kilogram body weight,15-30%
same,reduction of TG level in hepatic tissues,[3],significantly reduce
same,reduction of cholesterol level in hepatic tissues,[3],significantly reduce
same,reduction of TG level in blood,[4],significantly reduce
same,reduction of cholesterol level in blood,[4],significantly reduce
same,reduction of TG level in blood,[4]; [8],25-50%
same,reduction of cholesterol level (cholesterol level in blood examined; printed 'in hepatic tissues'),[4]; [8],25-50%
"FAM3B-11: siRNA, human FAM3B; sense 5′-CUCUGGACCGAUGACAAAGdTdT-3′; antisense 5′-CUUUGUCAUCGGUCCAGAGdTdT-3′ (sense CUCUGGACCGAUGACAAAGTT; antisense CUUUGUCAUCGGUCCAGAGTT; sugars from the 5' end r19 d2, backbone not given here)",inhibition of FAM3B protein expression in HepG2 cells,[5],significantly inhibit
"FAM3B-24: siRNA, human FAM3B; sense 5′-GAGUAAAUGUGUUCUGUAUdTdT-3′; antisense 5′-AUACAGAACACAUUUACUCdTdT-3′ (sense GAGUAAAUGUGUUCUGUAUTT; antisense AUACAGAACACAUUUACUCTT; sugars from the 5' end r19 d2, backbone not given here)",inhibition of FAM3B protein expression in HepG2 cells,[5],significantly inhibit
"FAM3B-17: siRNA, human FAM3B; sense 5′-GGUCUAGCUGGGUAUUUAUdTdT-3′; antisense 5′-AUAAAUACCCAGCUAGACCdTdT-3′ (sense GGUCUAGCUGGGUAUUUAUTT; antisense AUAAAUACCCAGCUAGACCTT; sugars from the 5' end r19 d2, backbone not given here)",inhibition of FAM3B protein expression in HepG2 cells,[5],significantly inhibit
"FAM3B-15: siRNA, human FAM3B; sense 5′-GCACUUGGAAGUAAAGAAAdTdT-3′; antisense 5′-UUUCUUUACUUCCAAGUGCdTdT-3′ (sense GCACUUGGAAGUAAAGAAATT; antisense UUUCUUUACUUCCAAGUGCTT; sugars from the 5' end r19 d2, backbone not given here)",inhibition of FAM3B protein expression in HepG2 cells,[5],significantly inhibit
